Test results taken from patent publication US20240368560A1, “METHODS OF PRODUCING THREE-DIMENSIONAL CELLULAR TISSUES” (TOPPAN HOLDINGS INC., priority 2022, published 2024).

What was measured:
Assay type in all cases: cell-based, human
[1] = tested on: three-dimensional cellular tissue (NHDF, HUVEC, HCT15/β2m cells); test: Bright-field observation of three-dimensional cellular tissue formation (Experimental Example 1); conditions: day 7 of culture; ascorbic acid 0, 0.05 or 0.1 mM; TGF-β 0, 0.1, 1, 5 or 10 ng/mL
Experimental: 1.0×10^6 cells of human neonatal dermal fibroblasts NHDF (product number “CC-2509”, Lonza) and 1.5×10^4 cells of human umbilical vein endothelial cells HUVEC (product number “C2517A”, Lonza) were suspended in a 50 mM tris-HCl buffer solution (pH 7.4) containing 0.1 mg/mL heparin (product number “H3149-100KU”, Sigma) and 0.1 mg/mL collagen (product number “ASC-1-100-100”, Sigma).
Then, the cell suspension was centrifuged at room temperature at 1,000×g (gravitational acceleration) for 2 minutes, and, after removing the supernatant, resuspended in 300 μL of general-purpose medium. Then, the obtained cell suspension was seeded inside a 24-well cell culture insert (product number “3470”, Corning Incorporated) coated with 0.1 mg/mL fibronectin in advance, with 1 mL of general-purpose medium added to the outside.
Then, the cell culture insert was centrifuged at room temperature at 400×g for 2 minutes, and then allowed to stand in a CO2 incubator (37° C., 5% CO2) for 2 hours. Then, 1 mL of general-purpose medium was added to the outside the cell culture insert, and the cells were cultured in a CO2 incubator (37° C., 5% CO2) for 24 hours (the time at which this culture was started is referred to as the culture start time).
The medium outside the cell culture insert was removed, and 1 mL of general-purpose medium was added. […]

[2] = tested on: three-dimensional cellular tissue (NHDF, HUVEC, HCT15/β2m cells); test: Formation of collagen, PSR staining, timing of ascorbic acid addition (Experimental Example 2); conditions: day 7 of culture
Experimental: Preparation of stromal cells, seeding of cancer cells and lamination of stromal cells were performed in the same manner as in Experimental Example 1 except that 2.0×10^6 cells of human neonatal dermal fibroblasts NHDF were seeded, as NHDF, in a square dish (product number “166508”, Nunc) containing 90 mL of general-purpose medium or general-purpose medium containing 0.1 mM ascorbic acid, and cultured in a CO2 incubator (37° C., 5% CO2) for 24 hours.
Then, the medium inside and outside the cell culture insert was removed, and 2.3 mL of general-purpose medium or general-purpose medium containing 0.1 mM ascorbic acid was added, and the cells were cultured in a CO2 incubator (37° C., 5% CO2) for 3 days.
Subsequently, the medium inside and outside the culture insert was removed, and 2.3 mL of general-purpose medium or general-purpose medium containing 0.1 mM ascorbic acid was added, and the cells were cultured in a CO2 incubator (37° C., 5% CO2) for 3 days.
On day 7 of the culture, the three-dimensional cellular tissue was washed twice with PBS, and 300 μL of 10% formalin buffer solution (product number “062-01661”, FUJIFILM Wako Pure Chemical Corporation) was added to the cell culture insert, which was then allowed to stand for 15 minutes or more and washed three times with PBS to fix the three-dimensional cellular tissue. […]

[3] = tested on: three-dimensional cellular tissue (NHDF, HUVEC, HCT15/β2m cells); test: Formation of collagen, PSR staining (Experimental Example 1); conditions: ascorbic acid 0.1 mM, alone or with TGF-β 1 ng/mL
Experimental: The medium inside and outside the above cell culture insert was removed, and 2 mL of general-purpose medium was added, using magnesium ascorbate phosphate (product number “013-12061”, FUJIFILM Wako Pure Chemical Corporation) and TGF-β (product number “209-16544”, FUJIFILM Wako Pure Chemical Corporation), with the ascorbic acid concentration being 0 mM, […], and the cells were cultured in a CO2 incubator (37° C., 5% CO2) for 3 days. Then, the medium inside and outside the culture insert was removed, and 2.3 mL of general-purpose medium was added with the ascorbic acid concentration being 0 mM, […], and the cells were cultured in a CO2 incubator (37° C., 5% CO2) for 3 days. On day 4 and day 7 of the culture, the obtained three-dimensional cellular tissue was washed twice with PBS, and […] of 10% formalin buffer solution (product number “062-01661”, FUJIFILM Wako Pure Chemical Corporation) was added to the cell culture insert, which was then allowed to stand for 15 minutes or more and washed three times with PBS to fix the three-dimensional cellular tissue. Then, the three-dimensional cellular tissue was removed from the cell culture insert, embedded in paraffin, and cut along a line passing through the center of gravity in a direction perpendicular to the top of the three-dimensional cellular tissue (top of the cell culture insert) to prepare a […] thin slice. […]

## O=C1O[C@H]([C@@H](O)CO)C(O)=C1O [ascorbic acid]
[1]
  formation of three-dimensional cellular tissue (microscopic observation): a three-dimensional cellular tissue was formed
[2]; 0.1 mM ascorbic acid added after formation of the three-dimensional cellular tissue
  formation of collagen (PSR staining): collagen was found to be formed
[2]; 0.1 mM ascorbic acid added to NHDF in advance (24 hours before tissue formation)
  formation of collagen (PSR staining): no change in formation of collagen
[3]
  formation of collagen (PSR staining, PSR ratio): fiber-like collagen was formed

## TGF-β
[1]
  formation of three-dimensional cellular tissue (microscopic observation): the cellular tissue shrunk and became detached from the cell culture insert, and no three-dimensional cellular tissue was formed
